From paper PMC6347702 (Proceedings of the National Academy of Sciences of the …, 2019)

Assays:
Assay in all cases: spectrophotometric enzyme assay, recombinant human enzyme, […] ATP-Mg2+
Format in all cases: biochemical
[1] = biological target: T1, hexokinase 1 (∆21-hHK1) (Homo sapiens, UniProt P19367)
T1 sequence (P19367 22-917): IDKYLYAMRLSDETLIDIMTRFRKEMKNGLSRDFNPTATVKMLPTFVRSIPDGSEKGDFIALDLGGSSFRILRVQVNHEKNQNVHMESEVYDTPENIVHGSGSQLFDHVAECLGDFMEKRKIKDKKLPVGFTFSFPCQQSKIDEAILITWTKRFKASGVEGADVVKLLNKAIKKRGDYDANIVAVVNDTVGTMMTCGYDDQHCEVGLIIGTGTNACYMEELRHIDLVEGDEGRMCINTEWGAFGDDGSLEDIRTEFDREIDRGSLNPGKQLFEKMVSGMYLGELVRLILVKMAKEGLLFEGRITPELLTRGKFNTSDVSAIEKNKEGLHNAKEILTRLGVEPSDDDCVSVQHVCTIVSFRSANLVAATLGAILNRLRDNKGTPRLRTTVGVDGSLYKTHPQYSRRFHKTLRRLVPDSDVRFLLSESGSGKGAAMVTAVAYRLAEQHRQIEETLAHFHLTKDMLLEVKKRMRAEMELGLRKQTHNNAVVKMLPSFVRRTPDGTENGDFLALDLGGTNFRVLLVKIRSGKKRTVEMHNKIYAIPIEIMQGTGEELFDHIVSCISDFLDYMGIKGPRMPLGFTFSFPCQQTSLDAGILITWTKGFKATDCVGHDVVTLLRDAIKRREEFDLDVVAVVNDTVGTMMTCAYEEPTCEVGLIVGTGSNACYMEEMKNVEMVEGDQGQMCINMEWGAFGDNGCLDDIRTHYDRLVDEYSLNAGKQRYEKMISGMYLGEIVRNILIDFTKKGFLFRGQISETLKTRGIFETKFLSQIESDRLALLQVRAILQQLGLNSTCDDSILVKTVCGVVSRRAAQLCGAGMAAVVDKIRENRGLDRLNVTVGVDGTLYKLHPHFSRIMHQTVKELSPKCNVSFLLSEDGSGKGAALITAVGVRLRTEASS

[2] = biological target: T2, hexokinase 2 (∆28-hHK2) (Homo sapiens, UniProt P52789)
T2 sequence (P52789 29-917): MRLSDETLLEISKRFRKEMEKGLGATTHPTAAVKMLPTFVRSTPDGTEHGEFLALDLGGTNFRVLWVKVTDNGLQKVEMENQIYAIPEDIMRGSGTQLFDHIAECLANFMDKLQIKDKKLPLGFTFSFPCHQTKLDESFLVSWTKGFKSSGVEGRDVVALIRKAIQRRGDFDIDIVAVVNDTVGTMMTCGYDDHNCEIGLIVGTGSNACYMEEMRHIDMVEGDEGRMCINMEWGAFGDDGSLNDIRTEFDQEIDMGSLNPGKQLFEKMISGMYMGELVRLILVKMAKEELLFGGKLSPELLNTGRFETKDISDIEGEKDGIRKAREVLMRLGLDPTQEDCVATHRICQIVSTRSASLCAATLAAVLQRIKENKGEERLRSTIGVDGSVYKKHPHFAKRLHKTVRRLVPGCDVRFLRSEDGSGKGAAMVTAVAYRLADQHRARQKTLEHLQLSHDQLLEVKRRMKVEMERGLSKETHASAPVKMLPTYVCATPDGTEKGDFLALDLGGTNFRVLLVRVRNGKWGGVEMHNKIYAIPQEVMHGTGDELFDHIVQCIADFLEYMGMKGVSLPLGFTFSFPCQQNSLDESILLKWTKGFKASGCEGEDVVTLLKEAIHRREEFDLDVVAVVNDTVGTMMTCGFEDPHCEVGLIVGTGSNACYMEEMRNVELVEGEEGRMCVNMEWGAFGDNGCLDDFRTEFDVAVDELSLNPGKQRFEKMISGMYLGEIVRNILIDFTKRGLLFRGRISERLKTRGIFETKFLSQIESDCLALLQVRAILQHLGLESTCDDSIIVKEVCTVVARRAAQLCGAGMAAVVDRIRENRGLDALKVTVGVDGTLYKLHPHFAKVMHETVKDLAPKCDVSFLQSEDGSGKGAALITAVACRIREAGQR

[3] = biological target: T3, hexokinase 3 (hHK3) (Homo sapiens, UniProt P52790)
T3 sequence (P52790 1-923): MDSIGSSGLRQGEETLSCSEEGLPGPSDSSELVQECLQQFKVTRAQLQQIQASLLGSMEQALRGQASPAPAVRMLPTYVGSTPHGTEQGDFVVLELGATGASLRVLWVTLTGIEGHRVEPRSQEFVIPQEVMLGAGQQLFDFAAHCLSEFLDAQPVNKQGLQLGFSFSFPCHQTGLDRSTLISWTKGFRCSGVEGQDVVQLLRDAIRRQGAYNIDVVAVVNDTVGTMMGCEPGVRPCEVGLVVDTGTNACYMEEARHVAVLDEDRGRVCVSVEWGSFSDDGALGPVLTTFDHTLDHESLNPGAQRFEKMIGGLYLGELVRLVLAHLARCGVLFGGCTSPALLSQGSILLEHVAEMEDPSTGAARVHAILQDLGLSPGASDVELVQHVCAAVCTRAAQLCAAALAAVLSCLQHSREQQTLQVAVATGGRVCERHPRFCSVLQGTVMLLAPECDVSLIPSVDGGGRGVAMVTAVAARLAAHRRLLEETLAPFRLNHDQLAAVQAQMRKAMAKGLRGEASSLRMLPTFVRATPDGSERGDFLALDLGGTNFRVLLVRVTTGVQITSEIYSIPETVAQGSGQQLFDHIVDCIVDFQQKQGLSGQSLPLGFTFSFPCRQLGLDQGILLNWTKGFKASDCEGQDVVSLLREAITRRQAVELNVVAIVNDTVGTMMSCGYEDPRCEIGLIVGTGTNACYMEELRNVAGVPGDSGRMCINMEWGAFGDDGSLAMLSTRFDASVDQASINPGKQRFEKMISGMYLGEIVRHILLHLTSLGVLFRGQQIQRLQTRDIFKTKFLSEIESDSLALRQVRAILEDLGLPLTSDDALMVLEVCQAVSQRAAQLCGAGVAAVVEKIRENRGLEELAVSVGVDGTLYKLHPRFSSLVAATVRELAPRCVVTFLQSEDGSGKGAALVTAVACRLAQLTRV

- Ki [1]: 53 ± 2 µM
- Ki [2]: 96 ± 3 µM
- Ki [3]: 134 ± 9 µM
SMILES: O=P(O)(O)OC[C@H]1OC[C@H](O)[C@@H](O)[C@@H]1O [1,5AG6P, 1,5-anhydroglucitol-6-phosphate]
